Where two headings read alike, the source gives them in different places.

The subject of one assay is E. coli (Ec). Briefly: Broth microdilution minimum inhibitory concentration (MIC), CLSI. The class given is cell-based. To be noted: Escherichia coli, read-out: E. coli + bicarb MIC. In a few lines: (§1)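 CLSI broth microdilution with modification: 8-point two-fold compound dilutions in CAMHB, CAMHB plus 6.25 or 25 mM sodium bicarbonate, or CAMHB plus 0–50% heat-inactivated human serum. Inoculum 5×10^4 CFU/well from log-phase cultures adjusted to 0.5 McFarland; triplicate wells.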
In general terms: Dilution methods test growth across graded concentrations, often in twofold steps.

In another assay the test system is S. aureus (Sa). The description is as above. The class given is cell-based. To be noted: Staphylococcus aureus, read-out: Sa + bicarb MIC. In a few lines:
as §1

For a further assay, the system named is A. baumannn (Ab). The description is as above. In kind it is cell-based. The note with it: read-out: Ab + bicarb MIC. In a few lines:
as §1

Another assay deals with P. aeruginosa (Pa). Described as above. The class given is cell-based. The note with it: Pseudomonas aeruginosa, read-out: Pa MIC + bicarb. In a few lines: as §1
The next assay concerns E. faecalis (Ef). The description is as above. The class given is cell-based. The note with it: Enterococcus faecalis, read-out: Ef + bicarb MIC. In a few lines: as §1
In assay [1] the target is Rabbit Reticulocyte Lysate (eukaryotic protein synthesis). Briefly: Rabbit reticulocyte lysate luciferase assay (inhibition of eukaryotic protein synthesis). In kind it is biochemical. To be noted: read-out: Rabbit reticulocyte IC50 (μM/% inhib.). In a few lines:
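Percent inhibition calculated against water-only controls from luminescence; background set by lysate lacking RNA. Compounds, 8-point 2-fold titration, incubated 90 minutes at 30° C with nuclease-treated rabbit reticulocyte lysate programmed with luciferase control RNA plus complete amino acids.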

Assay [2] has as its system E. coli S30 extract (bacterial protein synthesis). Briefly: E. coli S30 extract coupled transcription-translation luciferase assay (inhibition of bacterial protein synthesis). In kind it is biochemical. The note with it: read-out: S30 IC50 (μM/% inhib.). In a few lines: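 Luciferase luminescence quantified inhibition of protein synthesis relative to water controls, with no-DNA reactions giving background. Compounds in 2-fold serial dilution (8 levels) were incubated 1 hour at 37 °C with E. coli S30 extract, amino acids and pBESTluc plasmid, then chilled to stop.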

[3] abbreviates: growth medium supplemented with sodium bicarbonate.
[4] abbreviates: class by IC50 or % inhibition @ 1 μM.
[5] abbreviates: growth medium with sodium bicarbonate.
[6] abbreviates: A. baumannn, growth medium with sodium bicarbonate.

The term MIC denotes the smallest concentration in the dilution series that meets the test's criterion for growth inhibition. In the case of `Cc1cc(-n2ccc(NC(=O)N3CCN(C(=O)C(C)(C)N)CC3)nc2=O)ccc1CCN1CCC2CC2(N)C1` (stereo not drawn) [Compound 101], the minimal inhibitory concentration (MIC) with E. coli (Ec) (setting [3]) is under 8 µg/mL; with S. aureus (Sa) (setting [3]), under 8 µg/mL; in the assay with A. baumannn (Ab) (Acinetobacter baumannii), 8 to 32 µg/mL; with P. aeruginosa (Pa) (setting [3]) it was over 32 µg/mL; in the assay on E. faecalis (Ef) (setting [3]), under 8 µg/mL. Also, the values for the IC50 in assay [1] (setting [4]) and in assay [2] (setting [4]) were at least 1 µM and under 0.5 µM, respectively.
As for `CC(Cc1ccc(-n2ccc(NC(=O)N3CCN(C(=O)C(C)(C)N)CC3)nc2=O)cc1)NC12CC(CN)(C1)C2` (stereo not drawn) [Compound 203], the minimal inhibitory concentration (MIC) was 8 to 32 µg/mL in the assay on E. coli (Ec) (setting [5]); 8 to 32 µg/mL in the assay on S. aureus (Sa) (setting [5]); over 32 µg/mL with A. baumannn (Ab) (setting [6]); over 32 µg/mL in the assay with P. aeruginosa (Pa) (setting [5]); over 32 µg/mL in the assay on E. faecalis (Ef) (setting [5]). The IC50 in assay [1] (% inhibition @ 1 μM) and in assay [2] (% inhibition @ 1 μM) was at least 1 µM in each case.
In the case of `CC(Cc1ccc(-n2ccc(NC(=O)N3CCN(C(=O)[C@@H](N)CCCCN)CC3)nc2=O)cc1)N1C[C@@H]2[C@@H](CN)[C@@H]2C1` (stereo partly drawn) [Compound 240], the minimum inhibitory concentration (MIC) in the assay with E. coli (Ec) (setting [5]) was under 8 µg/mL; in the assay with S. aureus (Sa) (setting [5]) it was 8 to 32 µg/mL; in the assay with A. baumannn (Ab) (setting [6]) it was over 32 µg/mL; in the assay with P. aeruginosa (Pa) (setting [5]), over 32 µg/mL; with E. faecalis (Ef) (setting [5]) it was over 32 µg/mL. For the same compound, the values for the IC50 in assay [1] (% inhibition @ 1 μM) and in assay [2] (% inhibition @ 1 μM) were at least 1 µM and under 0.5 µM, respectively.
`CC(Cc1ccc(-n2ccc(NC(=O)N3CCN(C(=O)C(C)(C)N)CC3)nc2=O)cc1)NC12CC(N)(C1)C2` (stereo not drawn) [Compound 202]: the MIC with E. coli (Ec) (setting [5]) was over 32 µg/mL; with S. aureus (Sa) (setting [5]), over 32 µg/mL; in the assay with A. baumannn (Ab) (setting [6]), 8 to 32 µg/mL; in the assay with P. aeruginosa (Pa) (setting [5]), over 32 µg/mL; in the assay with E. faecalis (Ef) (setting [5]) it was over 32 µg/mL. Moreover, the IC50 in assay [1] (% inhibition @ 1 μM) and in assay [2] (% inhibition @ 1 μM) was at least 1 µM in each case.
Turning to `CC(Cc1ccc(-n2ccc(NC(=O)N3CCN(C(=O)[C@H]4C[C@H](N)C4)CC3)nc2=O)cc1)N1C[C@@H]2[C@@H](CN)[C@@H]2C1` (stereo partly drawn) [Compound 234], the minimum inhibitory concentration (MIC) in the assay with E. coli (Ec) (setting [5]) was under 8 µg/mL; in the assay with S. aureus (Sa) (setting [5]), under 8 µg/mL; in the assay with A. baumannn (Ab) (setting [6]) it was over 32 µg/mL; in the assay with P. aeruginosa (Pa) (setting [5]), over 32 µg/mL; with E. faecalis (Ef) (setting [5]), over 32 µg/mL. Moreover, the IC50 in assay [1] (% inhibition @ 1 μM) and in assay [2] (% inhibition @ 1 μM) was at least 1 µM throughout.
For the compound `CC(C)[C@@H](N)CC(=O)N1CCN(C(=O)Nc2ccn(-c3ccc(CC(C)N4C[C@@H]5[C@@H](CN)[C@@H]5C4)cc3)c(=O)n2)CC1` (stereo partly drawn) [Compound 235], the MIC was under 8 µg/mL in the assay with E. coli (Ec) (setting [5]); under 8 µg/mL in the assay on S. aureus (Sa) (setting [5]); over 32 µg/mL with A. baumannn (Ab) (setting [6]); over 32 µg/mL in the assay on P. aeruginosa (Pa) (setting [5]); over 32 µg/mL in the assay with E. faecalis (Ef) (setting [5]). The IC50 in assay [1] (% inhibition @ 1 μM) and in assay [2] (% inhibition @ 1 μM) was at least 1 µM each time.

The values are drawn from patent publication US12692253B2, “Antimicrobial compounds and methods” (Curza Global, LLC, priority 2019, dated 2026).
